Experimental data published in BigSolDB 2.1.

Cc1cc(=O)[nH]c(=S)[nH]1
solubility (mole fraction)
Conditions | 278.15 K | 283.15 K | 288.15 K | 293.15 K | 298.15 K | 303.15 K | 308.15 K | 313.15 K | 318.15 K | 323.15 K
in DMF | 0.0117 | 0.0144 | 0.0174 | 0.0207 | 0.0252 | 0.0294 | 0.0346 | 0.0396 | 0.0463 | 0.0538
in DMSO | – | – | – | 0.0379 | 0.0432 | 0.0491 | 0.0549 | 0.0619 | 0.0692 | 0.0773
in NMP | 0.013 | 0.0155 | 0.0181 | 0.0212 | 0.0246 | 0.0288 | 0.0334 | 0.0391 | 0.0454 | 0.051
in water | 2.53e-05 | 3.23e-05 | 4.15e-05 | 5.26e-05 | 6.68e-05 | 8.48e-05 | 0.000106 | 0.000129 | 0.000156 | 0.000187
